In patent publication US12012390B2, “Flavone compounds for the treatment and prophylaxis of hepatitis B virus disease” (priority 2018, dated 2024):

Tests used:
cccDNA in HepDES19 cells = assay: cccDNA Southern Blot assay; format: cell-based, HBV; conditions: 5 days' compound treatment, FIG. 1
Description: HepDES19 cells were seeded at 4×10^6 cells per T150 in the culture medium (Dulbecco's Modified Eagle Medium: Nutrient Mixture F-12 [DMEM-F12, Gibco Cat. 11320-82], 10% Fetal Bovine Serum [FBS, Clontech Cat. 631101], 0.1 mM Non-Essential Amino Acids Solution [NEAA, Gibco Cat. 11140-050], 50 μg/mL Penicillin-Streptomycin [PS, Invitrogen Cat. 15140-163], 500 μg/mL Geneticin [G418, Invitrogen Cat. 10131-027]) in the absence of Tet for 8 days. These cells were seeded at the density of 1×10^6 cells per well in 6-well plate. At 24 hrs after seeding, serial dilutions of compounds made with DMSO (Sigma, Cat. D2650) were further diluted with the same culture medium as described above before they were added to the cells to reach desired final compound concentrations and 1% DMSO concentration. After 5 days' compound treatment, the cells growing in one well from 6-well plate were re-suspended with 500 μL re-suspension buffer (50 mM tris[hydroxymethyl]amino methane pH 7.5), 10 mM ethylenediaminetetraacetic acid (EDTA), 50 μg/mL RNase A [Qiagen, Cat. 158922]. 500 μL of 1.2% sodium dodecyl sulfate (SDS) was then added into the re-suspended cells to lyse the cells. After 15 minutes' incubation, 700 μL precipitation buffer (3M cesium chloride, 1M potassium acetate, 0.67M acetic acid) was added and the lysate was incubated at 4° C. for 2 h. […]

[1] = system: HBeAg level (surrogate marker for cccDNA) in HepDES19 cells; assay: Engineered HepDES19 primary screen assay (HBeAg as surrogate marker for cccDNA); format: cell-based, HBV; conditions: Hepatitis B virus, HepDES19, 120 h, read-out: IC50 (HBeAg) in HepDES19 primary screen assay, HepDES19 cells, 5 days incubation with compound, HBeAg by ELISA
Summary of the method: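 HepDES19 cells were induced by Tet withdrawal for 8 days, then exposed to half-log compound dilutions (1% DMSO) for 5 days at 37° C. HBeAg, a cccDNA surrogate, was measured by ELISA; viability by CCK-8. IC50 from 4-parameter logistic fit.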

In the case of `O=C(O)C1CC(OCCOc2ccc(-c3cc(=O)c4cccc(Cl)c4o3)cc2)C1` (centres unmarked) [Example 1, 3-[2-[4-(8-chloro-4-oxo-chromen-2-yl)phenoxy]ethoxy]cyclobutanecarboxylic acid], the “cccDNA level in cccDNA Southern Blot assay” value (cccDNA in HepDES19 cells) is reported as “dose-dependently reduced cccDNA level” and the IC50 [1] is reported as 140 nM.
